Laboratory results: patent publication US8895585B2, “Nicotinamide derivative or salt thereof” (FUJIFILM Corporation, priority 2010, dated 2014)
pIC50: −log10 of the molar value.

Key:
THP-1 cells = assay: TNFα generation assay; assay type: cell-based, human; conditions: Homo sapiens, THP-1, THP-1 cells; Table 22; read-out: IC50 in TNFα generation assay
Procedure, shortened: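 THP-1 cells differentiated to macrophage-like cells with 10 ng/ml IFN-γ for 2 days, preincubated with compound 30 min at room temperature, then cultured 7 h on plates coated with human IgG (10 μg/ml). Secreted TNFα measured by ELISA or AlphaLISA.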

[1] = target: T1, glutathione S-transferase (GST)-fused full-length human Syk protein (Homo sapiens, UniProt P43405); assay: Syk enzyme assay; assay type: biochemical; conditions: Syk enzyme assay, Test Example 1; read-out: IC50 of Syk-inhibitory activity
T1 construct: (GST)-fused full-length human Syk protein; GST (glutathione S-transferase); purchased Carna Biosciences
Procedure, shortened: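 GST-tagged full-length human Syk (baculovirus) preincubated with compound 15 min at room temperature (pH 7.0, 10 mM MgCl2), then reacted 40 min with 0.4 μM biotinylated peptide substrate and 27 μM ATP (final). Phosphorylation read by HTRF (615/665 nm) after EDTA stop; IC50 reported.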

Compound | pIC50 (THP-1 cells) | pIC50 [1]
CCn1ncc2c(Nc3nc(N[C@H](C4CC4)[C@H](C)N)c(F)cc3C(N)=O)cccc21 [Example 006-576, 6-(((1R,2S)-2-amino-1-cyclopropylpropyl)amino)-2-((1-ethyl-1H-indazol-4-yl)amino)-5-fluoronicotinamide] | > 7.19 | > 8.00
C[C@H](N)[C@H](Nc1nc(Nc2ccc3c(c2)c(F)nn3C)c(C(N)=O)cc1F)C1CC1 [Example 006-577, 6-(((1R,2S)-2-amino-1-cyclopropylpropyl)amino)-2-((3-fluoro-1-methyl-1H-indazol-5-yl)amino)-5-fluoronicotinamide] | > 7.19 | > 8.00
CCc1nn(C)c2ccc(Nc3nc(N[C@H](C4CC4)[C@H](C)N)c(F)cc3C(N)=O)cc12 [Example 006-578, 6-(((1R,2S)-2-amino-1-cyclopropylpropyl)amino)-2-((3-ethyl-1-methyl-1H-indazol-5-yl)amino)-5-fluoronicotinamide] | 6.89 to 7.19 | > 8.00
CCc1nn(CC)c2ccc(Nc3nc(N[C@H](C4CC4)[C@H](C)N)c(F)cc3C(N)=O)cc12 [Example 006-579, 6-(((1R,2S)-2-amino-1-cyclopropylpropyl)amino)-2-((1,3-diethyl-1H-indazol-5-yl)amino)-5-fluoronicotinamide] | 6.89 to 7.19 | > 8.00
CC(C)c1nn(C)c2ccc(Nc3nc(N[C@H](C4CC4)[C@H](C)N)c(F)cc3C(N)=O)cc12 [Example 006-580, 6-(((1R,2S)-2-amino-1-cyclopropylpropyl)amino)-5-fluoro-2-((3-isopropyl-1-methyl-1H-indazol-5-yl)amino)nicotinamide] | 6.70 to 6.89 | > 8.00
CCn1ncc2ccc(Nc3nc(N[C@H](C4CC4)[C@H](C)N)c(F)cc3C(N)=O)cc21 [Example 006-581, 6-(((1R,2S)-2-amino-1-cyclopropylpropyl)amino)-2-((1-ethyl-1H-indazol-6-yl)amino)-5-fluoronicotinamide] | > 7.19 | > 8.00
CCn1nc(C)c2cc(Nc3nc(N[C@H](C4CC4)[C@H](C)N)c(F)cc3C(N)=O)ccc21 [Example 006-583, 6-(((1R,2S)-2-amino-1-cyclopropylpropyl)amino)-2-((1-ethyl-3-methyl-1H-indazol-5-yl)amino)-5-fluoronicotinamide] | > 7.19 | > 8.00
Cc1nn(CC(F)F)c2ccc(Nc3nc(N[C@H](C4CC4)[C@H](C)N)c(F)cc3C(N)=O)cc12 [Example 006-584, 6-(((1R,2S)-2-amino-1-cyclopropylpropyl)amino)-2-((1-(2,2-difluoroethyl)-3-methyl-1H-indazol-5-yl)amino)-5-fluoronicotinamide] | 6.89 to 7.19 | > 8.00

Continued, values first:

pIC50 (THP-1 cells) | pIC50 [1] | Compound
6.89 to 7.19 | 6.00 to 7.00 | COc1ncc(Nc2nc(N[C@@H]3CCCC[C@@H]3N)c(F)cc2C(N)=O)cc1N1CCOCC1 [Example 006-564, 6-(((1R,2S)-2-aminocyclohexyl)amino)-5-fluoro-2-((6-methoxy-5-mopholinopyridin-3-yl)amino)nicotinamide]
6.89 to 7.19 | 6.00 to 7.00 | CCOc1ncc(Nc2nc(N[C@@H]3CCCC[C@@H]3N)c(F)cc2C(N)=O)cc1N1CCOCC1 [Example 006-565, 6-(((1R,2S)-2-aminocyclohexyl)amino)-2-((6-ethoxy-5-morpholinopyridin-3-yl)amino)-5-fluoronicotinamide]
6.70 to 6.89 | 7.30 to 8.00 | CCOc1ncc(Nc2nc(N[C@@H]3CCCC[C@@H]3N)c(F)cc2C(N)=O)cc1F [Example 006-572, 6-(((1R,2S)-2-aminocyclohexyl)amino)-2-((6-ethoxy-5-fluoropyridin-3-yl)amino)-5-fluoronicotinamide]
6.70 to 6.89 | 7.30 to 8.00 | COCCOc1ncc(Nc2nc(N[C@@H]3CCCC[C@@H]3N)c(F)cc2C(N)=O)cc1-n1cccn1 [Example 006-575, 6-(((1R,2S)-2-aminocyclohexyl)amino)-2-((6-(2-methoxyethoxy)-5-(1H-pyrazol-1-yl)pyridin-3-yl)amino)-5-fluoronicotinamide]
